In the CheMixHub viscosity set:
Where “and” joins values, the source holds several entries; their conditions need not be identical. Identical values can stand only once. ± gives the uncertainty stated by the source.

Experiments:
[1] = xn = mol fraction of the nth substance listed; settings: 101 kPa

O=C(OCc1ccccc1)c1ccccc1O
Settings	viscosity [mPa·s]
303.15 K, 101 kPa	6.722 ± 0.075

CCS
Settings	viscosity [mPa·s]
298.15 K, 101 kPa	0.2091 ± 0.0019

OCCOc1ccccc1
101 kPa
Settings	viscosity [mPa·s]
303.15 K	12.86 ± 0.33
313.15 K	9.235 ± 0.25
323.15 K	5.927 ± 0.18

CC=Cc1ccc2c(c1)OCO2
Settings	viscosity [mPa·s]
298.15 K, 101 kPa	3.981 ± 0.048

CCCCCCCCCCCCCC[P+](CCCCCC)(CCCCCC)CCCCCC.c1nnc[n-]1
100 kPa
Settings	viscosity [mPa·s]
293.15 K	1320 ± 90
298.15 K	918 ± 56
303.15 K	654 ± 35
308.15 K	477 ± 23
313.15 K	354 ± 15
318.15 K	269 ± 10
323.15 K	209 ± 7

CCOCC
viscosity
Settings	293.15 K	298.15 K	303.15 K	303.16 K
101 kPa	0.239 ± 0.006 mPa·s	–	0.212 ± 0.006 mPa·s	0.2193 ± 0.041 mPa·s and 0.2193 ± 0.081 mPa·s
101.33 kPa	0.25 ± 0.007 mPa·s	0.225 ± 0.0016 mPa·s	–	–

CC(C)CC(=O)CC(C)C
100 kPa
Settings	viscosity [mPa·s]
293.15 K	0.95 ± 0.03
298.15 K	0.905 ± 0.028
303.15 K	0.86 ± 0.03
308.15 K	0.81 ± 0.03
313.15 K	0.76 ± 0.02
318.15 K	0.72 ± 0.02
323.15 K	0.67 ± 0.02

CCCCCC(=O)O
Settings	viscosity [mPa·s]
298.15 K, 101 kPa	2.814 ± 0.073
323.15 K, 101.33 kPa	1.762 ± 0.022

CCCCCCO
viscosity
Settings	100 kPa	101 kPa	101.3 kPa	101.33 kPa
293.15 K	5.36 ± 0.97 mPa·s and 5.363 ± 0.063 mPa·s and 5.273 ± 0.061 mPa·s	4.963 ± 0.03 mPa·s	5.361 ± 0.12 mPa·s	4.993 ± 0.061 mPa·s
298 K	4.502 ± 0.07 mPa·s	–	–	–
298.15 K	4.45 ± 0.8 mPa·s	–	4.342 ± 0.052 mPa·s and 4.403 ± 0.1 mPa·s	–
303 K	–	–	–	3.82 ± 0.05 mPa·s
303.15 K	3.883 ± 0.11 mPa·s	–	3.69 ± 0.045 mPa·s	–
308 K	–	–	–	3.3 ± 0.05 mPa·s
308.15 K	–	–	3.139 ± 0.038 mPa·s and 3.604 ± 0.084 mPa·s	–
313 K	–	2.903 ± 0.076 mPa·s	–	2.87 ± 0.04 mPa·s and 2.82 ± 0.069 mPa·s
313.15 K	2.9 ± 0.52 mPa·s and 2.896 ± 0.034 mPa·s	2.86 ± 0.089 mPa·s and 3.451 ± 0.69 mPa·s and 2.934 ± 0.024 mPa·s	–	–
318.15 K	2.571 ± 0.03 mPa·s and 2.656 ± 0.074 mPa·s	2.397 ± 0.24 mPa·s and 2.656 ± 0.092 mPa·s	2.655 ± 0.066 mPa·s	2.601 ± 0.11 mPa·s
323 K	–	–	–	2.183 ± 0.047 mPa·s
323.15 K	2.2 ± 0.4 mPa·s	2.072 ± 0.067 mPa·s	–	2.267 ± 0.093 mPa·s

CC(C)CC(C)(C)C
viscosity
Settings	293.15 K	298.15 K	303.15 K	308.15 K	313.15 K	318.15 K	323.15 K
100 kPa	–	0.492 ± 0.01 mPa·s	–	0.45 ± 0.01 mPa·s	0.431 ± 0.009 mPa·s	–	–
101 kPa	0.498 ± 0.013 mPa·s	–	0.451 ± 0.01 mPa·s and 0.445 ± 0.0047 mPa·s	0.428 ± 0.009 mPa·s and 0.427 ± 0.008 mPa·s	–	0.378 ± 0.008 mPa·s	0.364 ± 0.008 mPa·s and 0.3593 ± 0.0043 mPa·s
101.33 kPa	–	0.462 ± 0.013 mPa·s and 0.492 ± 0.004 mPa·s and 0.4842 ± 0.0045 mPa·s	–	0.412 ± 0.012 mPa·s and 0.441 ± 0.003 mPa·s	0.391 ± 0.012 mPa·s and 0.4056 ± 0.0043 mPa·s	0.381 ± 0.011 mPa·s and 0.3848 ± 0.0042 mPa·s	–

CCC12CC3CC(CC(C3)C1)C2
100 kPa
Settings	viscosity [mPa·s]
293.15 K	6.43 ± 0.26
298.15 K	5.606 ± 0.23
303.15 K	4.931 ± 0.2
308.15 K	4.365 ± 0.18
313.15 K	3.887 ± 0.16

O=C1CCCCC1
Settings	viscosity
293.15 K, 101.3 kPa	2.546 ± 0.029 mPa·s
293.15 K, 101.33 kPa	2.315 ± 1 mPa·s
298.15 K, 101.3 kPa	1.963 ± 0.025 mPa·s
303.15 K, 101.3 kPa	1.768 ± 0.022 mPa·s and 1.915 ± 0.022 mPa·s
308.15 K, 101 kPa	1.631 ± 0.021 mPa·s and 1.632 ± 0.038 mPa·s and 1.632 ± 0.077 mPa·s
308.15 K, 101.3 kPa	1.602 ± 0.02 mPa·s and 1.585 ± 0.025 mPa·s
313.15 K, 100 kPa	1.481 ± 0.1 mPa·s
313.15 K, 101 kPa	1.476 ± 0.016 mPa·s and 1.476 ± 0.019 mPa·s and 1.481 ± 0.07 mPa·s
318.15 K, 100 kPa	1.285 ± 0.1 mPa·s
318.15 K, 101 kPa	1.285 ± 0.062 mPa·s and 1.373 ± 0.032 mPa·s and 1.373 ± 0.066 mPa·s
318.15 K, 101.33 kPa	1.311 ± 0.017 mPa·s

CCC(C)N (stereo not drawn)
viscosity
Settings	298.15 K	303.15 K	308.15 K	313.15 K	318.15 K	323.15 K
101 kPa	–	0.4024 ± 0.0036 mPa·s	0.3996 ± 0.041 mPa·s and 0.3996 ± 0.0055 mPa·s	–	–	–
101.33 kPa	0.4176 ± 0.0038 mPa·s	0.3884 ± 0.0036 mPa·s	0.3659 ± 0.0035 mPa·s	0.3465 ± 0.0033 mPa·s	0.3274 ± 0.0032 mPa·s	0.3104 ± 0.0031 mPa·s

CCCC[n+]1ccccc1.F[B-](F)(F)F
101.3 kPa
Settings	viscosity
293.15 K	223 ± 45 mPa·s and 223.1 ± 13 mPa·s
298.15 K	163 ± 33 mPa·s and 163.3 ± 7.9 mPa·s
303.15 K	121 ± 24 mPa·s and 123 ± 5 mPa·s
308.15 K	92.8 ± 19 mPa·s and 94.21 ± 3.3 mPa·s
313.15 K	72.3 ± 14 mPa·s and 70.29 ± 2.1 mPa·s
318.15 K	57.4 ± 12 mPa·s and 55.81 ± 1.6 mPa·s
323.15 K	46.3 ± 9.3 mPa·s and 45.12 ± 1.4 mPa·s

CC(=O)CC(C)C
viscosity
Settings	293.15 K	298.15 K	303.15 K	308.15 K	313.15 K	318.15 K	323.15 K
100 kPa	0.59 ± 0.05 mPa·s	–	0.53 ± 0.04 mPa·s	–	0.47 ± 0.04 mPa·s	–	0.42 ± 0.03 mPa·s
101 kPa	0.575 mPa·s	0.543 mPa·s and 0.54 ± 0.017 mPa·s and 0.543 ± 0.007 mPa·s	–	0.494 mPa·s and 0.476 ± 0.016 mPa·s and 0.456 ± 0.021 mPa·s	0.443 ± 0.1 mPa·s	–	0.401 ± 0.1 mPa·s
101.3 kPa	–	0.543 ± 0.015 mPa·s	0.519 ± 0.014 mPa·s	–	0.467 ± 0.013 mPa·s	–	–
101.32 kPa	0.5848 ± 0.0071 mPa·s	0.5463 ± 0.0066 mPa·s	–	0.4871 ± 0.006 mPa·s	–	–	–
101.33 kPa	0.5848 ± 0.0071 mPa·s and 0.586 ± 0.006 mPa·s	0.5463 ± 0.0066 mPa·s and 0.542 ± 0.007 mPa·s	0.52 ± 0.005 mPa·s	0.4871 ± 0.0059 mPa·s and 0.505 ± 0.007 mPa·s	–	0.447 ± 0.006 mPa·s	–

CCCC(=O)[O-].CC[NH+](CC)CCO
101 kPa
Settings	viscosity [mPa·s]
293.15 K	71.57 ± 1.6
298.15 K	53.96 ± 1.1
303.15 K	41.42 ± 0.89
308.15 K	32.34 ± 0.69
313.15 K	25.64 ± 0.55
318.15 K	20.63 ± 0.44
323.15 K	16.82 ± 0.36

OCCOc1ccccc1 + CCCCCCO
viscosity [mPa·s], [1]
Settings	x2 = 0.1	x2 = 0.201	x2 = 0.301	x2 = 0.401	x2 = 0.501	x2 = 0.601	x2 = 0.701	x2 = 0.801	x2 = 0.9
303.15 K	10.95 ± 0.29	9.244 ± 0.25	8.099 ± 0.22	7.25 ± 0.2	6.508 ± 0.19	5.696 ± 0.17	4.981 ± 0.15	4.335 ± 0.13	3.978 ± 0.12
313.15 K	7.906 ± 0.22	7.005 ± 0.2	6.239 ± 0.18	5.548 ± 0.16	4.764 ± 0.15	4.151 ± 0.13	3.605 ± 0.11	3.222 ± 0.1	2.981 ± 0.093
323.15 K	5.285 ± 0.16	4.821 ± 0.15	4.389 ± 0.14	3.866 ± 0.12	3.518 ± 0.11	3.128 ± 0.098	2.716 ± 0.085	2.358 ± 0.075	2.148 ± 0.069
